According to patent US20260327260A1, “PHOSPHONOALANINE OLIGOPEPTIDES AND METHODS OF MAKING AND USE THEREOF” (priority 2023, published 2026):
Residues, ends and D or L forms follow the SMILES beside them.

What was measured:
Type in all cases: biochemical, Streptomyces sp. NRRL S-515
PnaC = PnaC dipeptide ligation reactions (LC-HRMS); settings: for nucleophiles accepted upon activation of the carboxylate: role: substrate (activated carboxylate); for acceptance as carboxylate: role: substrate (carboxylate), 30° C, 16 hours
Method: (§1) These hypotheses were tested by overproducing and purifying recombinant PnaB and PnaC from E. coli for use in a series of biochemical assays. PnAla, Ala, and ATP were incubated with PnaB or PnaC and the reactions were monitored by ^31P NMR and LC-HRMS. […] To determine if either enzyme could convert Ala-Val into phosphonoalamide A, protein was removed from the PnaC reaction by ultrafiltration and Ala, ATP, and fresh PnaC or PnaB was added to the filtrate. LC-HRMS identified PnAla-Ala-Val as a product following the addition of PnaB, but not PnaC (FIG. 25A-FIG. 25C).
The ATP-Grasp ligases PnaC and PnaB underlie diversification of L-PnAla-containing oligopeptides. To understand the biochemical nature of this potential phosphonopeptide diversity, the substrate specificity of the dipeptide ligase PnaC was first delineated. Microscale biochemical reactions containing purified PnaC were performed with every combination of the 20 canonical amino acids and L-allo-threonine (231 total pairs of substrates). Reactions were analyzed by LC-HRMS to reveal putative dipeptides from 146 out of the 231 combinations. To distinguish residues in reactions containing isomeric pairs (e.g., Ile and Leu, Thr and allo-Thr) new reactions were prepared using ^15N-Ile and 4-^13C-2,3-D2-Thr as substrates. LC-HRMS/MS fragmentation analysis was then performed to verify all products and determine structures.
Biochemical assays of His6-PnaC. Typical reaction mixtures ([…]) contained 10 μM His6-PnaC, […], 3 mM of each L-amino acid, and 5 mM ATP in 50 mM Tris-HCl, 100 mM NaCl, 2 mM MgCl2 pH 9. Reactions were incubated at 30° C. for 16 hours, heat inactivated at 65° C. for 10 minutes, and then analyzed by LC-MS as described above.
(§2) Analysis of PnaC and PnaB substrate specificity reactions. An extracted ion chromatogram (EIC) was obtained for each potential product m z. The shape and retention time of each EIC were used to evaluate the quality and plausibility of true signals, and samples with low-confidence EICs were re-analyzed individually, to address the challenges of ion suppression (FIG. 31A-FIG. 31C) and background noise (FIG. 32A-FIG. 32D).

PnaB = PnaB ligation reactions (31P NMR, LC-HRMS); settings: for conversion of dipeptide with PnAla into phosphonoalamide: role: substrate, dipeptide 3 mM, with PnAla 1 mM and ATP 3 mM, pH 9, 30° C
Method: as §1
Biochemical assays of His6-PnaB. Typical reaction mixtures ([…]) contained 10 μM His6-PnaB, 3 mM ATP, 1 mM L-PnAla, 3 mM chemically synthesized L-Ala-L-Val, L-Val-L-Val, L-Ala-L-Ile, or L-Thr-L-Val in 50 mM Tris-HCl, 100 mM NaCl, 2 mM MgCl2 pH 9. Reactions were incubated at 30° C. for 2 hours, heat inactivated at 65° C. for 10 minutes, and then analyzed by NMR and LC-MS as described above.

PnaB and PnaC = experiment: One-pot tripeptide synthesis using PnaB and PnaC; settings: for abundance of PnAla conjugate: role: substrate (dipeptide), with PnAla 1 mM and ATP 5 mM, one-pot with PnaC
Excerpt: Having established the diversity of dipeptides produced by PnaC, the reaction specificity of PnaB was probed. PnaC was used to generate substrates for the ligation of PnAla by PnaB. Microscale reactions contained PnaB, PnaC, PnAla, and all pairs of amino acids shown to form dipeptides. LC-HRMS and fragmentation analysis was then used to identify and verify PnAla-containing tripeptides from these 80 reactions (FIG. 4B, Table 4, Table 5). Altogether, the combined enzyme system produced 97 distinct PnAla-tripeptides, 93 of which had not been previously isolated (FIG. 29 & FIG. 30).
Tripeptide synthesis assays using PnaB and PnaC. Reaction mixtures ([…]) contained 10 μM His6-PnaB, 10 μM His6-PnaC, 1 mM L-PnAla, 3 mM L-amino acid A, 3 mM L-amino acid B, and 5 mM ATP in 50 mM Tris-HCl, 100 mM NaCl, 2 mM MgCl2 pH 9. Reactions were incubated at 30° C. for 16 hours, heat inactivated at 65° C. for 10 minutes, and then analyzed by NMR and LC-MS as described above.
as §2

PnaA with PnaD = experiment: PnaD-PnaA coupled forward reaction, 31P NMR (PEP to PnAla)
Method: Biochemical assays of His6-SUMO-PnaA with His6-PnaD. Typical reaction mixtures (300 μL) contained 20 μM His6-PnaD, 20 μM His6-SUMO-PnaA, 1.5 mM PEP, 3 mM L-Asp, 100 μM pyridoxal 5′-phosphate (PLP), and 2 mM MgCl2 in 50 mM HEPES, 150 mM NaCl, pH 7.5. Reactions were incubated at 30° C. for 2 hours, heat inactivated at 65° C. for 10 minutes, and then analyzed by ^31P NMR and LC-MS as described above.
Reactions in timecourse experiments ([…]) contained 10 μM His6-PnaD, 10 μM His6-SUMO-PnaA, 1.5 mM PEP, 10 mM L-Asp, 100 μM pyridoxal 5′-phosphate (PLP), and 2 mM MgCl2 in 50 mM HEPES, 150 mM NaCl, pH 7.5. Samples were where heat inactivated 1, 5, 10, 30, 60, 120, and 240 min after initiation and then analyzed by ^31P NMR as described above.
Reactions examining the effect of amino donor concentrations were the same as above, except they contained 1.5, 3, 5, or 10 mM of (L-Asp). Samples were heat inactivated after 120 min and then analyzed by ^31P NMR as described above.

PnaD and PnaA = experiment: Coupled PnaD-PnaA kinetics: PEP conversion to L-PnAla, coupled to MDH/NADH oxidation; settings: second substrate L-Asp 5 mM
Excerpt: Apparent steady state parameters were also derived for the conversion of PEP to L-PnAla in reactions with equimolar amounts of PnaD and PnaA (FIG. 20A-FIG. 20B). […] The lower activity in the two-enzyme system is consistent with the slower rate of L-PnAla accumulation observed in the time course experiments (FIG. 16), reflects the unfavourability of PnPy formation [B30], and supports the general hypothesis that PepM activity is the limiting step in Pn biosynthetic pathways.
Kinetic analyses. All reactions (400 μL) were performed in 50 mM HEPES, 150 mM NaCl, pH 7.5, 30° C. using an Agilent Cary 300 spectrophotometer. The instrument was first blanked using the reaction containing the enzymes and the fixed substrate (without NADH). Initial rates were calculated from continual changes in absorbance (340 nm) before and after substrate addition. Data were analyzed using SigmaPlot 15.
Conversion of PEP and L-Asp to L-PnAla and OAA by His6-SUMO-PnaA and His6-PnaD. Each reaction contained 1 μM PnaA, 5 μM PnaD, 5 μM MDH, 200 uM NADH, 2 mM MgCl2, 5 mM L-Asp, and were initiated by the addition of 0.1, 0.2, 0.35, 0.5, 0.65, 0.8, or 1 mM PEP. PnaA was pre-incubated with PLP (1:5) on ice for 10 min prior to use.

PnaA = PnaA reverse transamination reaction, 31P NMR/LC-MS (PnAla to PnPy); settings: role: cofactor; additional PLP provided, with PnAla and OAA
Method: Biochemical assays of His6-SUMO-PnaA. Typical reaction mixtures (300 μL) contained 20 μM His6-SUMO-PnaA, 1.5 mM L-PnAla, 3 mM oxaloacetate, and 100 μM pyridoxal 5′-phosphate (PLP) in 50 mM HEPES, 150 mM NaCl, pH 7.5. Reactions were incubated at 30° C. for 2 hours, heat inactivated at 65° C. for 10 minutes, and then analyzed by NMR and LC-MS as described above.
Reactions in time course experiments (150 μL) contained 10 μM His6-SUMO-PnaA, 1.5 mM L-PnAla, 10 mM oxaloacetate (OAA), and 100 μM pyridoxal 5′-phosphate (PLP) in 50 mM HEPES, 150 mM NaCl, pH7.5. Samples were where heat inactivated 1, 5, 10, 30, 60, 120, and 240 min after initiation and then analyzed by ^31P NMR as described above.
Reactions examining the effect of keto-acid acceptor concentrations were the same as above, except they contained 1.5, 3, 5, or 10 mM of (OAA). Samples were heat inactivated after 120 min and then analyzed by ^31P NMR as described above.

[1] = role: substrate (PEP, 0.1-1 mM), MgCl2 2 mM, PnaD and PnaA coupled, pH 7.5, 30° C

Nc1ncnc2c1ncn2[C@@H]1O[C@H](COP(=O)(O)OP(=O)(O)OP(=O)(O)O)[C@@H](O)[C@H]1O [ATP, reference compound]
ATP requirement (PnaC; role: cofactor, ATP omitted): its omission abolished all activity | ATP requirement (PnaB; role: cofactor, ATP omitted): its omission abolished all activity

C[C@H](N)C(=O)O [Ala, Alanine]
substrate preference (average ion intensity of dipeptides) (PnaC; role: substrate, with ATP, LC-HRMS ion intensity): average ion intensity nearly a magnitude larger than any other group

C[C@H](N)C(=O)N[C@@H](C)C(=O)O [Ala-Ala] (H-Ala-Ala-OH)
abundance of PnAla conjugate (PnaB and PnaC): greatest abundance

CC[C@H](C)[C@H](NC(=O)[C@H](C)N)C(=O)O [Ala-Ile] (H-Ala-Ile-OH)
abundance of PnAla conjugate (PnaB and PnaC): greatest abundance | conversion of dipeptide with PnAla into phosphonoalamide (PnaB): respective conversion into phosphonoalamides B, C, and D

CC(C)C[C@H](NC(=O)[C@H](C)N)C(=O)O [Ala-Leu] (H-Ala-Leu-OH)
abundance of PnAla conjugate (PnaB and PnaC): greatest abundance

CSCC[C@H](NC(=O)[C@H](C)N)C(=O)O [Ala-Met] (H-Ala-Met-OH)
abundance of PnAla conjugate (PnaB and PnaC): greatest abundance

CC(C)[C@H](NC(=O)[C@H](C)N)C(=O)O [Ala-Val] (H-Ala-Val-OH)
abundance of PnAla conjugate (PnaB and PnaC): greatest abundance | dipeptide product of PnaC reaction (Ala + Val, ATP) (PnaC; role: product, with Ala, Val, ATP): product of the PnaC reaction

N[C@@H](CC(=O)O)C(=O)O [L-Asp, reference compound]
amino donor dependence of PnAla formation (PnaA with PnaD; role: substrate (amino donor), with PEP, PLP): strictly dependent on L-Asp as the amino donor

CSCC[C@H](N)C(=O)N[C@@H](Cc1c[nH]c2ccccc12)C(=O)O [Met-Trp] (H-Met-Trp-OH)
product of Met + Trp reaction (PnaC; role: product, PnaC-only reaction, Met and Trp, ATP): detected as the sole product

C=C(OP(=O)(O)O)C(=O)O [PEP, phosphoenolpyruvate]
catalytic efficiency lower than that of PnaA directly provided with PnPy (fold) (PnaD and PnaA; role: substrate (PEP), compared with PnPy): 1,000 fold | Km (PnaD and PnaA; [1]): 547 µM | kcat (PnaD and PnaA; [1]): 0.084 s⁻¹

Cc1ncc(COP(=O)(O)O)c(C=O)c1O [PLP, pyridoxal 5′-phosphate, reference compound]
effect of PLP on PnPy formation (PnaA): significantly greater PnPy was observed when additional PLP was provided | effect of PLP on PnAla formation (PnaA with PnaD; role: cofactor, without addition of PLP): enzyme activity was observed at significantly reduced amounts

CSCC[C@H](NC(=O)[C@H](Cc1c[nH]c2ccccc12)NC(=O)[C@@H](N)CP(=O)(O)O)C(=O)O [PnAla-Trp-Met]
product of Met + Trp reaction (PnaB and PnaC; role: product, two-enzyme system PnaBC, Met and Trp 3 mM each, ATP 5 mM): major species

C[C@@H](O)[C@H](N)C(=O)O [Thr, Threonine]
nucleophiles accepted upon activation of the carboxylate (PnaC; with ATP): acceptance of Trp as a nucleophile, but not Thr or Pro

CC(C)[C@H](NC(=O)[C@@H](N)[C@@H](C)O)C(=O)O [Thr-Val] (H-Thr-Val-OH)
conversion of dipeptide with PnAla into phosphonoalamide (PnaB): respective conversion into phosphonoalamides B, C, and D

CC(C)[C@H](N)C(=O)N[C@H](C(=O)O)C(C)C [Val-Val] (H-Val-Val-OH)
conversion of dipeptide with PnAla into phosphonoalamide (PnaB): respective conversion into phosphonoalamides B, C, and D

C[C@H](O)[C@H](N)C(=O)O [allo-Thr, allothreonine]
nucleophiles accepted upon activation of the carboxylate (PnaC; with ATP): both Thr and Pro as nucleophiles, to the exclusion of Trp

N=C(N)NCCC[C@H](N)C(=O)O [arginine, Arginine]
acceptance as carboxylate (PnaC; with ATP): all but arginine and cysteine were accepted as carboxylates

N[C@@H](CS)C(=O)O [cysteine, Cysteine]
acceptance as carboxylate (PnaC; with ATP): all but arginine and cysteine were accepted as carboxylates
